Laboratory results published in patent US20100298141A1, “SUBSTITUTED PYRIDINE N-OXIDE HERBICIDES” (E. I. DU PONT DE NEMOURS AND COMPANY, priority 2007, published 2010).

Legend:
[1] = system: giant foxtail; assay: Test A pre-/postemergence greenhouse test; type: in vivo, Setaria faberi; conditions: for Foxtail, Giant plant response rating: 0 to 100 scale; for Plant response rating, Foxtail, Giant: 0 to 100 scale where 0 is no effect and 100 is complete control
Summary of the method: (§1)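 Untreated controls served as the reference for visual injury ratings taken about ten days after spraying. The non-phytotoxic solvent/surfactant formulation was applied preemergence to seeded loam and sand and postemergence to plants two to ten cm high.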

[2] = system: velvetleaf; assay: Test A pre-/postemergence greenhouse test; type: in vivo, Abutilon theophrasti; conditions: for Velvetleaf plant response rating: 0 to 100 scale; for Plant response rating, Velvetleaf: 0 to 100 scale where 0 is no effect and 100 is complete control
Summary of the method: as §1

[3] = system: wheat; assay: Test C pre-/postemergence test; type: in vivo, Triticum aestivum
Summary of the method: (§2)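 Seeds were planted and treated preemergence with test chemical in a non-phytotoxic solvent mixture containing surfactant. Postemergence applications of the same formulation went onto plants 2 to 18 cm tall (1- to 4-leaf stage). A dash marks no test result.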

[4] = system: common ragweed; assay: Test C pre-/postemergence test; type: in vivo, Ambrosia elation
Summary of the method: as §2

[5] = system: barnyardgrass; assay: Test C flooded paddy test; type: in vivo, Echinochloa crus-galli; conditions: Flood
Summary of the method: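 In-water treatment: compound dosed into 3 cm flood over soil, water level unchanged throughout. Controls run alongside; visual assessment at day 13–15.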

[6] = system: green foxtail; assay: Test F preemergence test; type: in vivo, Setaria viridis; conditions: scale 0 to 100
Summary of the method: (§3)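 Visual ratings relative to controls, taken after 14 to 21 days in a greenhouse. Test chemicals, formulated in a surfactant-containing non-phytotoxic solvent mixture, were applied preemergence to sown seeds or postemergence to sugarcane plants.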

[7] = system: purple nutsedge; assay: Test F preemergence test; type: in vivo, Cyperus rotundus; conditions: scale 0 to 100
Summary of the method: as §3

[8] = system: southern sandbur; assay: Test F preemergence test; type: in vivo, Cenchrus echinatus; conditions: scale 0 to 100
Summary of the method: as §3

[9] = system: annual bluegrass; assay: Test F preemergence test; type: in vivo, Poa annua; conditions: scale 0 to 100
Summary of the method: as §3

[10] = system: field bindweed; assay: Test F preemergence test; type: in vivo, Convolvulus arvensis; conditions: scale 0 to 100
Summary of the method: as §3

[11] = system: common mallow; assay: Test F preemergence test; type: in vivo, Malva sylvestris; conditions: scale 0 to 100
Summary of the method: as §3

[12] = Postemergence, 125 g ai/ha, 0 is no effect, 100 is complete control
[13] = Postemergence, 500 g ai/ha, 0 is no effect, 100 is complete control
[14] = Preemergence, 125 g ai/ha, 0 no effect, 100 complete control
[15] = 62 g ai/ha, preemergence, scale 0 (no effect) to 100 (complete control)
[16] = Postemergence, 125 g ai/ha, scale 0 to 100, 0 no effect, 100 complete control
[17] = Postemergence, 250 g ai/ha, scale 0 to 100, 0 no effect, 100 complete control
[18] = preemergence, 125 g ai/ha, scale 0 (no effect) to 100 (complete control)
[19] = 31 g ai/ha, scale 0 to 100 (0 no effect, 100 complete control)
[20] = 62 g ai/ha, scale 0 to 100, 0 no effect, 100 complete control, 13 to 15 days
[21] = 125 g ai/ha, scale 0 to 100, 0 no effect, 100 complete control, 13 to 15 days
[22] = 62 g ai/ha, Preemergence, scale 0 to 100
[23] = 125 g ai/ha, preemergence, scale 0 (no effect) to 100 (complete control)
[24] = Preemergence, 31 g ai/ha, scale 0 to 100 (0 no effect, 100 complete control)
[25] = preemergence, 250 g ai/ha, scale 0 (no effect) to 100 (complete control)
[26] = 250 g ai/ha, scale 0 to 100, 0 no effect, 100 complete control, 13 to 15 days

## CC(c1c(C(F)(F)F)nn(C)c1OC(F)F)S(=O)(=O)c1cccc[n+]1[O-] (stereo not drawn) [Compound 5]
[1]; [12]
  Foxtail, Giant plant response rating: 90
[1]; [13]
  Foxtail, Giant plant response rating: 90
[1]; [14]
  Foxtail, Giant plant response rating: 90
[1]; Preemergence, 500 g ai/ha
  Plant response rating, Foxtail, Giant: 100
[2]; [12]
  Velvetleaf plant response rating: 60
[2]; [13]
  Velvetleaf plant response rating: 80
[2]; [14]
  Velvetleaf plant response rating: 90
[2]; Preemergence, 500 g ai/ha
  Plant response rating, Velvetleaf: 90
[3]; [15]
  Wheat plant response rating: 20
[3]; Postemergence, 31 g ai/ha
  Plant response rating (0 to 100), Wheat: 0
[3]; Postemergence, 62 g ai/ha
  Plant response rating (0 to 100), Wheat: 0
[3]; [16]
  Plant response rating, Wheat: 30
[3]; [17]
  Plant response rating, Wheat: 30
[3]; Preemergence, 250 g ai/ha
  Plant response rating (0 to 100), Wheat: 98
[3]; [18]
  Wheat plant response rating: 70
[4]; 31 g ai/ha, Preemergence, scale 0 to 100
  Ragweed plant response rating: 85
[4]; [15]
  Ragweed plant response rating: 85
[4]; Postemergence, 31 g ai/ha
  Plant response rating (0 to 100), Ragweed: 0
[4]; Postemergence, 62 g ai/ha
  Plant response rating (0 to 100), Ragweed: 5
[4]; [16]
  Plant response rating, Ragweed: 5
[4]; [17]
  Plant response rating, Ragweed: 55
[4]; Preemergence, 250 g ai/ha
  Plant response rating (0 to 100), Ragweed: 100
[4]; [18]
  Ragweed plant response rating: 100
[5]; [19]
  Plant response rating, Barnyardgrass: 70
[5]; [20]
  Plant response rating, Barnyardgrass: 80
[5]; [21]
  Plant response rating, Barnyardgrass: 85
[5]; 250 g ai/ha, scale 0 to 100 (0 no effect, 100 complete control)
  Plant response rating, Barnyardgrass: 85
[6]; 8 g ai/ha, preemergence
  Plant response rating, Foxtail, Green: 0
[6]; 62 g ai/ha, Preemergence
  Foxtail, Green plant response rating: 90
[6]; Preemergence, 16 g ai/ha
  Plant response rating, Foxtail, Green: 30
[6]; Preemergence, 31 g ai/ha
  Plant response rating, Foxtail, Green: 70
[7]; 8 g ai/ha, preemergence
  Plant response rating, Purple Nutsedge: 30
[7]; 62 g ai/ha, Preemergence
  Purple Nutsedge plant response rating: 90
[7]; Preemergence, 16 g ai/ha
  Plant response rating, Purple Nutsedge: 60
[7]; Preemergence, 31 g ai/ha
  Plant response rating, Purple Nutsedge: 75
[8]; 8 g ai/ha, preemergence
  Plant response rating, Sandbur: 15
[8]; 16 g ai/ha, preemergence
  Plant response rating, Sandbur: 75
[8]; 62 g ai/ha, Preemergence
  Sandbur plant response rating: 100
[8]; Preemergence, 31 g ai/ha
  Plant response rating, Sandbur: 100
[9]; 8 g ai/ha, preemergence
  Plant response rating, Bluegrass: 0
[9]; 62 g ai/ha, Preemergence
  Bluegrass plant response rating: 75
[9]; Preemergence, 16 g ai/ha
  Plant response rating, Bluegrass: 20
[9]; Preemergence, 31 g ai/ha
  Plant response rating, Bluegrass: 75
[10]; 8 g ai/ha, preemergence
  Plant response rating, Field Bindweed: 0
[10]; 62 g ai/ha, Preemergence
  Field Bindweed plant response rating: 0
[10]; Preemergence, 16 g ai/ha
  Plant response rating, Field Bindweed: 0
[10]; Preemergence, 31 g ai/ha
  Plant response rating, Field Bindweed: 0
[11]; 62 g ai/ha, Preemergence
  Mallow plant response rating: 90
[11]; Preemergence, 16 g ai/ha
  Plant response rating, Mallow: 25

## Cn1nc(C(F)(F)F)c(C[S+]([O-])c2ccc(Cl)c[n+]2[O-])c1OCC(F)F (stereo not drawn) [Compound 85]
[1]; Postemergence, 125 g ai/ha
  Plant response rating, Foxtail, Giant: 90
[1]; [13]
  Foxtail, Giant plant response rating: 90
[1]; [14]
  Foxtail, Giant plant response rating: 100
[1]; Preemergence, 500 g ai/ha
  Plant response rating, Foxtail, Giant: 100
[2]; Postemergence, 125 g ai/ha
  Plant response rating, Velvetleaf: 50
[2]; [13]
  Velvetleaf plant response rating: 90
[2]; [14]
  Velvetleaf plant response rating: 50
[2]; Preemergence, 500 g ai/ha, 0 no effect, 100 complete control
  Velvetleaf plant response rating: 100
[3]; [22]
  Wheat plant response rating: 50
[3]; [23]
  Wheat plant response rating: 70
[3]; [24]
  Plant response rating, Wheat: 50
[3]; [25]
  Wheat plant response rating: 100
[4]; [22]
  Ragweed plant response rating: 100
[4]; [23]
  Ragweed plant response rating: 100
[4]; [24]
  Plant response rating, Ragweed: 100
[4]; [25]
  Ragweed plant response rating: 100
[5]; [19]
  Plant response rating, Barnyardgrass: 0
[5]; 62 g ai/ha, scale 0 to 100 (0 no effect, 100 complete control)
  Plant response rating, Barnyardgrass: 0
[5]; [21]
  Plant response rating, Barnyardgrass: 25
[5]; [26]
  Plant response rating, Barnyardgrass: 70
[6]; 16 g ai/ha, preemergence
  Plant response rating, Foxtail, Green: 35
[6]; 125 g ai/ha, preemergence
  Foxtail, Green plant response rating: 95
[6]; Preemergence, 62 g ai/ha
  Plant response rating, Foxtail, Green: 90
[6]; Preemergence, 31 g ai/ha
  Plant response rating, Foxtail, Green: 70
[7]; 16 g ai/ha, preemergence
  Plant response rating, Purple Nutsedge: 0
[7]; 125 g ai/ha, preemergence
  Purple Nutsedge plant response rating: 65
[7]; Preemergence, 62 g ai/ha
  Plant response rating, Purple Nutsedge: 50
[7]; Preemergence, 31 g ai/ha
  Plant response rating, Purple Nutsedge: 0
[8]; 16 g ai/ha, preemergence
  Plant response rating, Sandbur: 10
[8]; 125 g ai/ha, preemergence
  Sandbur plant response rating: 100
[8]; Preemergence, 62 g ai/ha
  Plant response rating, Sandbur: 100
[8]; Preemergence, 31 g ai/ha
  Plant response rating, Sandbur: 70
[9]; 16 g ai/ha, preemergence
  Plant response rating, Bluegrass: 75
[9]; 125 g ai/ha, preemergence
  Bluegrass plant response rating: 100
[9]; Preemergence, 62 g ai/ha
  Plant response rating, Bluegrass: 95
[9]; Preemergence, 31 g ai/ha
  Plant response rating, Bluegrass: 95
[10]; 16 g ai/ha, preemergence
  Plant response rating, Field Bindweed: 0
[10]; 125 g ai/ha, preemergence
  Field Bindweed plant response rating: 35
[10]; Preemergence, 62 g ai/ha
  Plant response rating, Field Bindweed: 20
[10]; Preemergence, 31 g ai/ha
  Plant response rating, Field Bindweed: 0
[11]; 16 g ai/ha, preemergence
  Plant response rating, Mallow: 0
[11]; 125 g ai/ha, preemergence
  Mallow plant response rating: 98
[11]; Preemergence, 62 g ai/ha
  Plant response rating, Mallow: 98
[11]; Preemergence, 31 g ai/ha
  Plant response rating, Mallow: 50

## Cc1cc[n+]([O-])c([S+]([O-])Cc2c(C(F)(F)F)nn(C)c2OCC(F)(F)F)c1 (racemic) [Compound 30]
[1]; [12]
  Foxtail, Giant plant response rating: 80
[1]; [13]
  Foxtail, Giant plant response rating: 90
[1]; [14]
  Foxtail, Giant plant response rating: 100
[1]; Preemergence, 500 g ai/ha
  Plant response rating, Foxtail, Giant: 100
[2]; [12]
  Velvetleaf plant response rating: 50
[2]; [13]
  Velvetleaf plant response rating: 70
[2]; [14]
  Velvetleaf plant response rating: 90
[2]; Preemergence, 500 g ai/ha
  Plant response rating, Velvetleaf: 100
[3]; [22]
  Wheat plant response rating: 25
[3]; [24]
  Plant response rating, Wheat: 0
[4]; [22]
  Ragweed plant response rating: 60
[4]; [24]
  Plant response rating, Ragweed: 0
[5]; [19]
  Plant response rating, Barnyardgrass: 0
[5]; [20]
  Plant response rating, Barnyardgrass: 0
[5]; [21]
  Plant response rating, Barnyardgrass: 20
[5]; [26]
  Plant response rating, Barnyardgrass: 65
[6]; 62 g ai/ha, Preemergence
  Foxtail, Green plant response rating: 75
[6]; 125 g ai/ha, preemergence
  Foxtail, Green plant response rating: 100
[6]; Preemergence, 16 g ai/ha
  Plant response rating, Foxtail, Green: 15
[6]; Preemergence, 31 g ai/ha
  Plant response rating, Foxtail, Green: 25
[7]; 62 g ai/ha, Preemergence
  Purple Nutsedge plant response rating: 70
[7]; 125 g ai/ha, preemergence
  Purple Nutsedge plant response rating: 90
[7]; Preemergence, 16 g ai/ha
  Plant response rating, Purple Nutsedge: 0
[7]; Preemergence, 31 g ai/ha
  Plant response rating, Purple Nutsedge: 40
[8]; 62 g ai/ha, Preemergence
  Sandbur plant response rating: 100
[8]; 125 g ai/ha, preemergence
  Sandbur plant response rating: 100
[8]; Preemergence, 31 g ai/ha
  Plant response rating, Sandbur: 50
[9]; 62 g ai/ha, Preemergence
  Bluegrass plant response rating: 65
[9]; 125 g ai/ha, preemergence
  Bluegrass plant response rating: 80
[9]; Preemergence, 16 g ai/ha
  Plant response rating, Bluegrass: 35
[9]; Preemergence, 31 g ai/ha
  Plant response rating, Bluegrass: 50
[10]; 62 g ai/ha, Preemergence
  Field Bindweed plant response rating: 75
[10]; 125 g ai/ha, preemergence
  Field Bindweed plant response rating: 75
[10]; Preemergence, 16 g ai/ha
  Plant response rating, Field Bindweed: 50
[10]; Preemergence, 31 g ai/ha
  Plant response rating, Field Bindweed: 50
[11]; 62 g ai/ha, Preemergence
  Mallow plant response rating: 100
[11]; 125 g ai/ha, preemergence
  Mallow plant response rating: 100
[11]; Preemergence, 16 g ai/ha
  Plant response rating, Mallow: 90
[11]; Preemergence, 31 g ai/ha
  Plant response rating, Mallow: 95
